Where two headings read alike, the source gives them in different places.
Tests used:
[1] = cited from earlier work
Klebsiella sp.#2 = conditions: 200 ppm gNO, saline suspension; cited from earlier work
methemoglobin [2] = conditions: healthy humans, cited from earlier work
Klebsiella sp.#3 = conditions: 200 ppm gNO, saline suspension; cited from earlier work
S. aureus = conditions: cited from earlier work
[3] = tested on: human respiratory syncytial virus (rgRSV30); assay: RSV plaque assay after 30 minutes exposure to 160 ppm gNO; format: cell-based; conditions: single exposure of 30 minutes to 160 ppm gNO; for reduction of virus viability (factor): vs ambient air
Experimental: The efficacy of treating viral infection by respiratory syncytial virus by the methods presented herein was tested by exposure for 30 minutes of human respiratory syncytial virus (rgRSV30) to a gas mixture containing 160 ppm nitric oxide, using standard plaque assay as described hereinabove.
FIGS. 3A-D present the data obtained in the experiment using tissue culture samples harboring human rgRSV30, coupled to a green fluorescent protein, wherein the control experiment the samples were exposed to a ambient air (data not shown), and the tested samples having a starting viral level of 2000 PFU (FIG. 3A), 1000 PFU (FIG. 3B) and 500 PFU (FIG. 3C), were exposed to 160 ppm gNO for 30 minutes, whereas FIG. 3D presents a comparative bar plot comparing the control to test results.

[4] = topical 200 ppm gNO, cited from earlier work
[5] = Phase I safety study: inspiratory NO2 level during gNO administration; format: in vivo, human; conditions: inspired gas, 160 ppm gNO
Source text: (§1) The levels of gNO, NO2, O2 and methemoglobin were monitored during the administration of gNO. The target gas mixture was 160 ppm gNO with a nitrogen dioxide (NO2) level of less than 5 ppm and an oxygen (O2) level ranging from 21% to 25%. Inspiratory NO, NO2 and O2 levels were continuously monitored by sampling from the mouthpiece sample port located about 6 millimeters from the mouth of the subject with an AeroNOx (Pulmonox, AB, Canada) NO, NO2 and O2 electrochemical analyzer. Delivery safety was determined by the number of occasions that NO2 exceeded 5 ppm, gNO exceeding 10% variation and O2 dropping below 20% during gNO administration. A commercially available noninvasive pulse oximeter (Rad 57, Masimo Corporation, USA) was used to measure saturation levels at the periphery of methemoglobin (SpMet).

[6] = gNO concentrations below 200 ppm, 6 hours/day for 28 days, rats; cited from earlier work
P. aeruginosa = conditions: cited from earlier work
MRSA = conditions: 200 ppm gNO, saline suspension; cited from earlier work
[7] = tested on: highly pathogenic Avian Influenza H7N3; conditions: cited from earlier work
[8] = Phase I open label safety study in healthy adults: adverse events and vital signs; format: in vivo, human
Source text: 10 healthy adult volunteer subjects (5 males, 5 females), aged 20 to 62 years, were enrolled in the study after screening their medical history, a physical examination, pulmonary function tests and blood values. Exclusion criteria included individuals less than 19 years of age, pregnant females and unwilling to practice birth control during the study, diagnosed with pulmonary disease, epistaxis, hemoptysis, methemoglobinemia, organ transplant recipient or receiving antibiotic therapy.
(§2) After obtaining informed consent, treatment was initiated within 5 days of enrollment. Subjects were housed in a hospital ward and received 160 ppm gNO for 30 minutes every four hours (Q4 h), five times a day, for five consecutive days by inhalation. Subjects returned for follow-up evaluations 3, 7 and 21 days after the final gNO administration. Subject safety was determined by monitoring vital signs, methemoglobin levels, lung function, blood chemistry, hematology, prothrombin time, inflammatory cytokine/chemokines levels and endothelial activation.
Subjects were administered gNO through a modified disposable mouthpiece to maximize mixing. Inspiration was spontaneously initiated by the subject from a conventional intermittent positive pressure breathing respirator (Mark-7, Carefusion, USA) in fixed flow mode delivering 48 liters per minute (LPM). Flows of gas were verified with a calibrated mass flow meter (TSI, USA). Gaseous nitric oxide (gNO, obtained at INOmax, Ikaria, USA) at a concentration of 800 ppm delivered at a flow of 12 LPM was titrated into a distal delivery port on the mouth piece connected to the respirator during inspiratory phase only (pressure switch). The Mark 7 respirator was supplied by an air/oxygen blender (Bird Sentry, Carefusion, USA) set to deliver 26% oxygen.
Cardiovascular status was determined by monitoring heart rate, blood pressure, respiratory rate and temperature. Values were recorded prior to the start of each gNO administration, following a 5 minute rest. During treatments, vital signs (except temperature) were also performed 15 minutes after the start of the treatment and at the end of gNO administration and recorded. After the first treatment each day, vital signs were recorded at every 30 minutes until the start of the second gNO administration of the day.

methemoglobin [9] = assay: Phase I safety study: methemoglobin (SpMet) by pulse oximeter; format: in vivo, human
Experimental: as §2, §1
These parameters were measured continuously during every gNO administration course and for 3.5 hours after the first treatment of the day. Daily serum samples were collected and frozen at −80° C. and the serum […] level was measured using the Griess reagent.

S. maltophilia = conditions: 200 ppm gNO, saline suspension; cited from earlier work
[10] = levels of gNO greater than 120 ppm
[11] = solid media, increasing gNO concentration up to 160 ppm, vs medical air

Question: Which results are given for `[N]=O` [gNO, nitric oxide]?
Answer: mortality ([1]; 300 ppm gNO, groups of 10 rats, first 1-2 days): Six of the animals treated with 300 ppm gNO died; mortality ([1]; 400 ppm gNO, 6 continuous hours per day, rats): all of the animals died on the first day; mortality ([1]; 500 ppm gNO, 6 continuous hours per day, rats): all of the animals died on the first day; MetHb level ([1]; 500 ppm gNO, rats): 67 percents; LD100 (Klebsiella sp.#2): 5 h; Latent Period (Klebsiella sp.#2): 2 h; −2.5 Log10 (hours) (Klebsiella sp.#2): 4.1 hours; MetHb level (methemoglobin [2]; inhalation of gNO at 128 ppm for 3 hours): > 5%; MetHb level (methemoglobin [2]; inhalation of gNO at 512 ppm for 55 minutes): > 5%; LD100 (Klebsiella sp.#3): 6 h; Latent Period (Klebsiella sp.#3): 3 h; −2.5 Log10 (hours) (Klebsiella sp.#3): 5.1 hours; reduction of colony formation (S. aureus; [10]): greater than 90%; time required to achieve greater than 90% reduction of colony formation (S. aureus; [10]): 8 to 12 h; survival (downward bactericidal trend) (S. aureus; [11]): 5-10%; viral viability ([3]; starting 500 PFU): substantially nullified; reduction of virus viability (factor) ([3]; starting 1000 PFU): ~10; reduction of virus viability (factor) ([3]; starting 2000 PFU): ~10; wound size reduction ([4]; at one week): 42%; biofilm presence ([4]; within the first three days of treatment): no longer visibly present; highest NO2 level recorded during the treatments [5]: 2.8 ppm; mortality [6]: No deaths occurred; reduction of colony formation (P. aeruginosa; [10]): greater than 90%; time required to achieve greater than 90% reduction of colony formation (P. aeruginosa; [10]): 8 to 12 h; survival (downward bactericidal trend) (P. aeruginosa; [11]): 5-10%; LD100 (MRSA): 5 h; Latent Period (MRSA): 3 h; −2.5 Log10 (hours) (MRSA): 4.2 hours; viral replication and infectivity [7]: reduced not only viral replication but also their infectivity; minor adverse events reported ([8]; 160 ppm gNO 30 minutes, five times a day, five days, 10 healthy adults): Three minor adverse events were reported; tolerability and adverse events ([8]; 160 ppm gNO 30 minutes, five times a day, five days, 10 healthy adults, 250 administrations): well tolerated and no significant adverse events were observed; vital signs ([8]; during and after 160 ppm gNO administration): remained within normal limits; blood pressure ([8]; during or after 160 ppm gNO administration): no drop in blood pressure; residual increase in SpMet at follow-up (methemoglobin [9]; 3, 7 and 21 days after the final exposure to gNO): did not show any residual increase; all 930 recorded methemoglobin percent levels (SpMet) (methemoglobin [9]; 160 ppm gNO 30 minutes, five times a day, five days): < 5%; SpMet increase between pretreatment and post treatment (methemoglobin [9]; 160 ppm gNO, p<0.001): about 1%; time for SpMet to return to baseline (methemoglobin [9]; after 160 ppm gNO administration): 3.5 h; accumulative or lingering effect on SpMet (methemoglobin [9]; after five daily treatments for five consecutive days): no accumulative or lingering effect; highest SpMet (methemoglobin [9]; at the end of the 160 ppm gNO treatment): 2.5%; average increase of SpMet (methemoglobin [9]; single 30 minutes treatment course, 160 ppm gNO, ten individuals): 0.9%; LD100 (S. maltophilia): 4 h; Latent Period (S. maltophilia): 2 h; −2.5 Log10 (hours) (S. maltophilia): 2.8 hours
